For the experiment, the target named is T1, human V1a receptor (Homo sapiens, UniProt P37288).
T1 construct: expressed in transfected cells; host or cells: HEK293 cells, transiently transfected; membranes
The experiment is described as follows: human V1a receptor binding studies (3H-Vasopressin SPA, membranes of transfected HEK293 cells). The following applies: 3H-Vasopressin displacement, HEK293 cell membranes, SPA beads, 1 h at room temperature, Ki by Cheng-Prussoff from IC50, read-out: pKi (hV1a) (converted). Here is the method:
The human V1a receptor was cloned by RT-PCR from total human liver RNA. The coding sequence was subcloned in an expression vector after sequencing to confirm the identity of the amplified sequence. […] Cell membranes were prepared from HEK293-cells transiently transfected with the expression vector and grown in 20 liter fermenters with the following protocol.
50 g of cells are resuspended in 30 ml freshly prepared ice cold Lysis buffer (50 mM HEPES, 1 mM EDTA, 10 mM magnesium dichloride adjusted to pH=7.4+ complete cocktail of protease inhibitor (Roche Diagnostics)). Homogenized with Polytron for 1 min and sonicated on ice for 2×2 minutes at 80% intensity (Vibracell sonicator). The preparation is centrifuged 20 min at 500 g at 4° C., the pellet is discarded and the supernatant centrifuged 1 hour at 43,000 g at 4° C. (19,000 rpm). The pellet is resuspended in 12.5 ml Lysis buffer+12.5 ml sucrose 20% and homogenized using a Polytron for 1-2 min. The protein concentration is determined by the Bradford method and aliquots are stored at −80° C. until use. For binding studies 60 mg Yttrium silicate SPA beads (Amersham®) are mixed with an aliquot of membrane in binding buffer (50 mM Tris, 120 mM sodium chloride, 5 mM potassium chloride, 2 mM calcium dichloride, 10 mM magnesium dichloride) for 15 minutes with mixing. 50 μl of bead/membrane mixture is then added to each well of a 96 well plate, followed by 50 μl of 4 nM 3H-Vasopressin (American Radiolabeled Chemicals). For total binding measurement 100 μl of binding buffer are added to the respective wells, for non-specific binding 100 μl of 8.4 mM cold vasopressin and for compound testing 100 μl of a serial dilution of each compound in 2% dimethyl sulfoxide. The plate is incubated 1 h at room temperature, centrifuged 1 min at 1000 g and counted on a Packard Top-Count. Non-specific binding counts are subtracted from each well and data is normalized to the maximum specific binding set at 100%. To calculate an IC50 the curve is fitted using a non-linear regression model (XLfit) and the Ki is calculated using the Cheng-Prussoff equation.

Molecules are shown by their SMILES.

T1 sequence (P37288 whole entry): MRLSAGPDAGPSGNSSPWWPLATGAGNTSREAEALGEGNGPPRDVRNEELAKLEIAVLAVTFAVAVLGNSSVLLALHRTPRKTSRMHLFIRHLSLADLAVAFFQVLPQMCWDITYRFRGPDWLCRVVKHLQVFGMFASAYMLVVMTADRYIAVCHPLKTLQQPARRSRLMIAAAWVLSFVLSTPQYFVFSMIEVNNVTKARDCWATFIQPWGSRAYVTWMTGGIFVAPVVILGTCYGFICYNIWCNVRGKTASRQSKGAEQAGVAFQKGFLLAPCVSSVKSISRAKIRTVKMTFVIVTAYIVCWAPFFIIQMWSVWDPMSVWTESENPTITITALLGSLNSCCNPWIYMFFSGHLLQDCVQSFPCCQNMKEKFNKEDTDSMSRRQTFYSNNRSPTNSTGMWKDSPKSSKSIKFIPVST

Consider `Cc1nc(C2=CCC(c3nnc4n3-c3ccc(Cl)cc3CN(C(=O)OC(C)(C)C)C4)CC2)cs1` (racemic) [Example 34, (RS)-8-Chloro-1-[4-(2-methyl-thiazol-4-yl)-cyclohex-3-enyl]-4H,6H-2,3,5,10b-tetraaza-benzo[e]azulene-5-carboxylic acid tert-butyl ester], for which the Ki is 3.72 nM.

On to `Cc1nc(C2=CCC(c3nnc4n3-c3ccc(Cl)cc3CNC4)CC2)cs1` (racemic) [Example 35, (RS)-8-Chloro-1-[4-(2-methyl-thiazol-4-yl)-cyclohex-3-enyl]-5,6-dihydro-4H-2,3,5,10b-tetraaza-benzo[e]azulene], for which the Ki was 170 nM.

Take `Cc1nc(C2=CCC(c3nnc4n3-c3ccc(Cl)cc3CN(C)C4)CC2)cs1` (racemic) [Example 36, (RS)-8-Chloro-5-methyl-1-[4-(2-methyl-thiazol-4-yl)-cyclohex-3-enyl]-5,6-dihydro-4H-2,3,5,10b-tetraaza-benzo[e]azulene]: the Ki is 13.5 nM.

Consider `CN1Cc2cc(Cl)ccc2-n2c(nnc2C2CC=C(c3ccccn3)CC2)C1` (single isomer, unassigned; (+)) [Example 24, (+)-8-Chloro-5-methyl-1-(-4-pyridin-2-yl-cyclohex-3-enyl)-5,6-dihydro-4H-2,3,5,10b-tetraaza-benzo[e]azulene], for which the Ki was 2.88 nM.

As for `CC(C)(C)OC(=O)N1Cc2cc(Cl)ccc2-n2c(nnc2C2CC=C(c3ncccc3F)CC2)C1` (single isomer, unassigned; (+)) [Example 29, (+)-8-Chloro-1-[-4-(3-fluoro-pyridin-2-yl)-cyclohex-3-enyl]-4H,6H-2,3,5,10b-tetraaza-benzo[e]azulene-5-carboxylic acid tert-butyl ester], the Ki was 0.794 nM.

Consider `Fc1cccnc1C1=CCC(c2nnc3n2-c2ccc(Cl)cc2CNC3)CC1` (single isomer, unassigned; (+)) [Example 32, (+)-8-Chloro-1-[-4-(3-fluoro-pyridin-2-yl)-cyclohex-3-enyl]-5,6-dihydro-4H-2,3,5,10b-tetraaza-benzo[e]azulene], for which the Ki was 38.9 nM.

`CN1Cc2cc(Cl)ccc2-n2c(nnc2C2CC=C(c3ncccc3F)CC2)C1` (single isomer, unassigned; (+)) [Example 33, (+)-8-Chloro-1-[-4-(3-fluoro-pyridin-2-yl)-cyclohex-3-enyl]-5-methyl-5,6-dihydro-4H-2,3,5,10b-tetraaza-benzo[e]azulene]: the Ki is 5.13 nM.

For `CN1Cc2cc(Cl)ccc2-n2c(nnc2C2CC=C(c3ccccn3)CC2)C1` (single isomer, unassigned; (-)) [Example 23, (−)-8-Chloro-5-methyl-1-(-4-pyridin-2-yl-cyclohex-3-enyl)-5,6-dihydro-4H-2,3,5,10b-tetraaza-benzo[e]azulene], the Ki is 7.59 nM.

In the case of `CC(C)(C)OC(=O)N1Cc2cc(Cl)ccc2-n2c(nnc2C2CC=C(c3ncccc3F)CC2)C1` (single isomer, unassigned; (-)) [Example 28, (−)-8-Chloro-1-[-4-(3-fluoro-pyridin-2-yl)-cyclohex-3-enyl]-4H,6H-2,3,5,10b-tetraaza-benzo[e]azulene-5-carboxylic acid tert-butyl ester], the Ki was 1.91 nM.

Regarding `Fc1cccnc1C1=CCC(c2nnc3n2-c2ccc(Cl)cc2CNC3)CC1` (single isomer, unassigned; (-)) [Example 30, (−)-8-Chloro-1-[-4-(3-fluoro-pyridin-2-yl)-cyclohex-3-enyl]-5,6-dihydro-4H-2,3,5,10b-tetraaza-benzo[e]azulene], the Ki was 42.7 nM.

On to `CN1Cc2cc(Cl)ccc2-n2c(nnc2C2CC=C(c3ncccc3F)CC2)C1` (single isomer, unassigned; (-)) [Example 31, (−)-8-Chloro-1-[-4-(3-fluoro-pyridin-2-yl)-cyclohex-3-enyl]-5-methyl-5,6-dihydro-4H-2,3,5,10b-tetraaza-benzo[e]azulene], for which the Ki is 8.13 nM.

The values above are taken from patent publication US8461151B2, “Aryl-/heteroaryl-cyclohexenyl-tetraazabenzo[e]azulenes” (Hoffmann-La Roche Inc., priority 2010, dated 2013).
